Values after ≈ are worked out from the molar mass of the structure shown. “Also recorded” adds a separate entry of the source. Where two headings read alike, the source gives them in different places. Marks after values point to notes of the source that are not given here.
Key:
[1] = system: Neoplastic cells forming a tumor; conditions: cited from earlier work
[2] = system: C6 Rat glioma; type: cell-based
[3] = system: U-373 MG Human Glioblastoma; type: cell-based; conditions: parental U-373 MG
[4] = system: Hs 683 Human Glioma; type: cell-based; conditions: parental Hs 683
[5] = system: Sk-N-MC Human Neuroblastoma; type: cell-based; conditions: parental Sk-N-MC
[6] = system: FLYA13 Human Amphotropic Packaging Cells; type: cell-based; conditions: parental FLYA13
[7] = system: ΨCRIP Murine Amphotropic Packaging Cells; type: cell-based; conditions: parental ΨCRIP
[8] = system: NlH 3T3 Murine Fibroblasts; type: cell-based; conditions: parental 3T3
[9] = system: Ag 9181 Human Fibroblasts; type: cell-based; conditions: parental Ag 9181
[10] = system: C6 Rat glioma lin ^+ clones; assay: cells; type: cell-based; conditions: for IC50: Rattus norvegicus
[11] = system: U-373 MG Human Glioblastoma lin ^+ clones; assay: cells; type: cell-based; conditions: U373 MG, U-373 MG lin+
[12] = system: Hs 683 Human Glioma lin ^+ clones; assay: cells; type: cell-based; conditions: Hs 683 lin+
[13] = system: Sk-N-MC Human Neuroblastoma lin ^+ clones; assay: cells; type: cell-based
[14] = system: FLYA13 Human Amphotropic Packaging Cells lin ^+ clones; assay: cells; type: cell-based
[15] = system: ΨCRIPlin plus normal C6 cells labeled red with Dil; type: cell-based
[16] = system: ΨCRIPlin /ΨCRIP red or ΨCRIPlin /3T3 red; type: cell-based; conditions: 100 µg/ml linamarin
[17] = system: brain tumor of glioblastoma-C6lin transfected cells; type: in vivo, Wistar rats
[18] = system: C6, ΨCRIP and 3T3; conditions: very high concentrations of linamarin; cells without linamarase gene
[19] = system: rat glioblastoma C6 cells brain tumour
[20] = system: normal rat brains; conditions: local administration of up to 9 mg of linamarin
[21] = all human tissues; 1-20 mM linamarin, pH 6 and 7.4, 37°C
[22] = rat kidney only; 1-20 mM linamarin, pH 6 and 7.4, 37°C
[23] = system: adults; conditions: human, in vivo
[24] = system: ΨCRIP Murine Amphotropic Packaging Cells lin ^+ clones; assay: cells; conditions: Mus musculus
[25] = system: Female hamsters; conditions: oral dose of 108 mg of linamarin/kg body weight; cited from earlier work
[26] = system: animals; conditions: cited from earlier work
[27] = in the absence of linamarase; cited from earlier work
[28] = best clone, read-out: IC50 µg/ml Linamarin lin ^+ clones Best clone
[29] = mean of at least 4 clones, […], read-out: IC50 µg/ml Linamarin lin ^+ clones Mean value

N#CO [sodium cyanate]
higher sensitivity to the inhibitory effects at decreased extracellular pH [1]: ≥ 50%

CC(C)(C#N)O[C@@H]1O[C@H](CO)[C@@H](O)[C@H](O)[C@H]1O [linamarin, 2-0H-isobutyronitrile-β-D-glucopyranoside]
% of survival cells with 1 mg/ml Linamarin ([2]; 1 mg/ml linamarin, parental C6): 100^a %
survival of C6 alone ([2]; 10 mg/ml linamarin): 86%
% of survival cells with 1 mg/ml Linamarin [3]: 80%
% of survival cells with 1 mg/ml Linamarin [4]: 80%
% of survival cells with 1 mg/ml Linamarin [5]: 80%
% of survival cells with 1 mg/ml Linamarin [6]: 88^a %
% of survival cells with 1 mg/ml Linamarin ([7]; 1 mg/ml linamarin): 85%
cell survival values ([7]; up to 2 mg/ml of linamarin): did not substantially decrease cell survival values
% of survival cells with 1 mg/ml Linamarin [8]: 90^a %
% of survival cells with 1 mg/ml Linamarin [9]: 89^a %
IC50 ([10]; C6lin clone, pH 6.6, read-out: estimated IC50): 202 µg/mL (≈ 817 µM)
IC50 ([10]; C6lin clone, pH 7.4, read-out: estimated IC50): 345 µg/mL (≈ 1400 µM)
IC50 ([10]; C6 lin+, best clone, read-out: IC50 µg/ml Linamarin lin ^+ clones Best clone): 345 µg/mL
IC50 ([10]; C6 lin+, mean of at least 4 clones, […], read-out: IC50 µg/ml Linamarin lin ^+ clones Mean value): 407 µg/mL
IC50 of C6lin clones relative to ΨCRIP individual clones ([10]; in general): 50 times higher
IC50 [11, 28]: 145 µg/mL
IC50 [11, 29]: 236 µg/mL
IC50 [12, 28]: 230 µg/mL
IC50 [12, 29]: 288 µg/mL
IC50 [13, 28]: 183 µg/mL
IC50 [13, 29]: 215 µg/mL
IC50 ([14]; FLYA13lin clone, pH 6.6, read-out: estimated IC50): 77 µg/mL (≈ 311 µM)
IC50 ([14]; FLYA13lin clone, pH 7.4, read-out: estimated IC50): 195 µg/mL (≈ 789 µM)
IC50 ([14]; FLYA13 lin+, best clone, read-out: IC50 µg/ml Linamarin lin ^+ clones Best clone): 195 µg/mL
IC50 ([14]; FLYA13 lin+, mean of at least 4 clones, […], read-out: IC50 µg/ml Linamarin lin ^+ clones Mean value): 382 µg/mL
viability of either cell type in the mixture ([15]; 100 µg/ml linamarin): affect only partially the viability
fate of both cell types in the mixture ([15]; 2.5 mg/ml of linamarin): died
fate of the mixtures [16]: devastated
outcome of the animal ([17]; similar size tumour, only 1 mg of linamarin): finally died as a consequence of the tumour
tumour outcome by magnetic resonance imaging ([17]; tumour around 70 mm^3, total of 2.4 mg linamarin over 8 days, local infusion, image three weeks after treatment): total absence of the tumoral mass; also recorded: eradicated completely
cyanide detected after linamarin treatment [18]: No cyanide was detected
outcome of the medium size tumour animal ([19]; rat, in vivo): died a month later
outcome of control animals treated only with the prodrug ([19]; tumours of 220 and 140 mm^3, […]): died shortly afterwards
tumour outcome, largest and smallest glioblastomas ([19]; tumours of 1000 mm^3 and 400 mm^3, […]): total eradication of the tumour
cases developing a recurrence later ([19]; very large tumors (over 500 mm^3 in size), after up to six months): approximately 50%
toxicity [20]: No apparent toxicity
linamarase activity (cyanide release from linamarin) [21]: negative results for linamarase activity
linamarase activity (cyanide release from linamarin) [22]: low but detectable levels of cyanide production
equivalent of the lethal cyanide dose [23]: 500 to 1000 mg
IC50 ([24]; read-out: IC50 µg/ml Linamarin lin ^+ clones Best clone): 7 µg/mL
IC50 ([24]; read-out: IC50 µg/ml Linamarin lin ^+ clones Mean value): 32 µg/mL
IC50 ([24]; read-out: concentrations that resulted in 50% cytotoxicity (IC50)): 7 to 60 µg/mL (≈ 28.3 to 243 µM)
death (cyanide poisoning) [25]: 18 % of the animals
toxicity compared with oral dosing ([26]; administered intraperitoneally): practically absent
toxicity compared with oral dosing ([26]; similar doses intravenously): much lower
excretion once absorbed [27]: excreted unchanged in the urine

Reference: patent EP0943680A1 (priority 1998, dated 1999)
